Source: ChEMBL document CHEMBL5360653, “Marine Alkaloid Lepadins E and H Induce Ferroptosis for Cancer Chemotherapy” (J Med Chem, 2023)
Activity calls are given as the source filed them. The rule behind the calls is not given here.

Experiments:
HeLa [1] = assay: Induction of apoptosis in human HeLa cells assessed as necrotic cells incubated at 10 uM for 24 hrs measured by annexin V-PI staining based FITC analysis (reference value: 0.70%); format: functional
HeLa [2] = assay: Induction of ferroptosis in human HeLa cells assessed as decrease in cellular GSH level measured at 4 uM for 24 hrs by transmission electron microscopic analysis; format: functional, cell-based
HeLa [3] = assay: Induction of apoptosis in human HeLa cells assessed as early apoptotic cells incubated at 6 uM for 24 hrs measured by annexin V-PI staining based FITC analysis (reference value: 3.59%); format: functional
HeLa [4] = assay: Induction of ROS generation in human HeLa cells assessed as increase in ROS level at 20 uM incubated for 0.5 hrs (reference value: 39.6%); format: functional
HeLa [5] = assay: Induction of ferroptosis in human HeLa cells assessed as downregulation of SLC7A11 level measured at 4 to 10 uM for 24 hrs by Western blotting analysis; format: functional, cell-based; conditions: dose 4-10 µM
[6] = Toxicity in immunocompetent C57BL/6J mouse allografted with B16-F10 cells assessed as tissue damage in lungs administered at 30 mg/kg, ip daily for 14 days by hematoxylin and eosin staining analysis; format: organism-based; conditions: in vivo, 336 h, time 14 day
HeLa [7] = assay: Induction of ferroptosis in human HeLa cells assessed as disappearance of mitochondrial cristae measured at 6 uM for 24 hrs by transmission electron microscopic analysis; format: functional, cell-based
B16-F10 [8] = assay: Induction of ferroptosis in mouse B16-F10 cells assessed as increase in ACSL4 level measured at 4 to 10 uM by Western blotting analysis; format: functional, cell-based; conditions: dose 4-10 µM
HeLa [9] = assay: Induction of apoptosis in human HeLa cells assessed as early apoptotic cells preincubated with PFTalpha followed by compound addition at 10 uM for 24 hrs measured by annexin V-PI staining based FITC analysis (reference value: 2.72%); format: functional
HeLa [10] = assay: Induction of apoptosis in human HeLa cells assessed as early apoptotic cells incubated at 4 uM for 24 hrs measured by annexin V-PI staining based FITC analysis (reference value: 3.59%); format: functional
B16-F10 [11] = assay: Induction of ferroptosis in mouse B16-F10 cells assessed as cell viability in presence of DFO at 10 uM; format: functional, cell-based
B16-F10 [12] = assay: Induction of ferroptosis in mouse B16-F10 cells assessed as cell viability in presence of liproxstatin-1 at 10 uM; format: functional, cell-based
HeLa [13] = assay: Induction of apoptosis in human HeLa cells assessed as viable cells incubated at 10 uM for 24 hrs measured by annexin V-PI staining based FITC analysis (reference value: 94.2%); format: functional; conditions: read-out: Activity
HeLa [14] = assay: Induction of apoptosis in human HeLa cells assessed as late apoptotic cells incubated at 6 uM for 24 hrs measured by annexin V-PI staining based FITC analysis (reference value: 1.81%); format: functional
[15] = Toxicity in immunocompetent C57BL/6J mouse allografted with B16-F10 cells assessed as tissue damage in spleen administered at 30 mg/kg, ip daily for 14 days by hematoxylin and eosin staining analysis; format: organism-based; conditions: in vivo, 336 h, time 14 day
HeLa [16] = assay: Induction of apoptosis in human HeLa cells assessed as necrotic cells incubated at 6 uM for 24 hrs measured by annexin V-PI staining based FITC analysis (reference value: 0.70%); format: functional
B16-F10 [17] = assay: Cytotoxicity against mouse B16-F10 cells incubated for 72 hrs by MTT assay; format: functional, cell-based; conditions: B16-F10, 72 h
[18] = Toxicity in immunocompetent C57BL/6J mouse allografted with B16-F10 cells assessed as change of organ index in liver administered at 30 mg/kg, ip daily for 14 days by hematoxylin and eosin staining analysis; format: organism-based; conditions: in vivo, 336 h, time 14 day
HeLa [19] = assay: Induction of apoptosis in human HeLa cells assessed as necrotic cells incubated at 10 uM for 24 hrs measured by annexin V-PI staining based FITC analysis (reference value: 0.79%); format: functional
HeLa [20] = assay: Induction of ferroptosis in human HeLa cells assessed as increase in density of mitochondrial membrane measured at 6 uM for 24 hrs by transmission electron microscopic analysis; format: functional, cell-based
HeLa [21] = assay: Induction of ROS generation in human HeLa cells assessed as increase in ROS level at 6 to 10 uM; format: functional, cell-based; conditions: dose 6-10 µM
[22] = Toxicity in immunocompetent C57BL/6J mouse allografted with B16-F10 cells assessed as change of organ index in spleen administered at 30 mg/kg, ip daily for 14 days by hematoxylin and eosin staining analysis; format: organism-based; conditions: in vivo, 336 h, time 14 day
[23] = Toxicity in immunocompetent C57BL/6J mouse allografted with B16-F10 cells assessed as change of organ index in thymus administered at 30 mg/kg, ip daily for 14 days by hematoxylin and eosin staining analysis; format: organism-based; conditions: in vivo, 336 h, time 14 day
HeLa [24] = assay: Induction of apoptosis in human HeLa cells assessed as early apoptotic cells incubated at 10 uM for 24 hrs measured by annexin V-PI staining based FITC analysis (reference value: 3.59%); format: functional
B16-F10 [25] = assay: Antitumor activity against mouse B16-F10 cells allografted in immunocompetent C57BL/6J mouse assessed as reduction of tumor growth administered at 30 mg/kg, ip daily for 14 days (reference value: 1500 mm^3); format: functional; conditions: time 14 day
HeLa [26] = assay: Induction of apoptosis in human HeLa cells assessed as early apoptotic cells incubated at 6 uM for 24 hrs measured by annexin V-PI staining based FITC analysis (reference value: 3.94%); format: functional
HeLa [27] = assay: Induction of ferroptosis in human HeLa cells assessed as decrease in cellular GSH level measured at 6 uM for 24 hrs by transmission electron microscopic analysis; format: functional, cell-based
HeLa [28] = assay: Induction of ROS generation in human HeLa cells assessed as increase in ROS level at 20 uM incubated for 0.5 hrs (reference value: 37.8%); format: functional
HeLa [29] = assay: Induction of apoptosis in human HeLa cells assessed as late apoptotic cells incubated at 4 uM for 24 hrs measured by annexin V-PI staining based FITC analysis (reference value: 1.54%); format: functional
HeLa [30] = assay: Induction of apoptosis in human HeLa cells assessed as necrotic cells incubated at 10 uM for 24 hrs measured by annexin V-PI staining based FITC analysis (reference value: 0.58%); format: functional
HeLa [31] = assay: Induction of apoptosis in human HeLa cells assessed as viable cells preincubated with PFTalpha followed by compound addition at 10 uM for 24 hrs measured by annexin V-PI staining based FITC analysis (reference value: 91.6%); format: functional; conditions: read-out: Activity
HeLa [32] = assay: Induction of apoptosis in human HeLa cells assessed as early apoptotic cells incubated at 10 uM for 24 hrs measured by annexin V-PI staining based FITC analysis (reference value: 3.94%); format: functional
HeLa [33] = assay: Induction of apoptosis in human HeLa cells assessed as early apoptotic cells incubated at 8 uM for 24 hrs measured by annexin V-PI staining based FITC analysis (reference value: 3.94%); format: functional
HeLa [34] = assay: Induction of apoptosis in human HeLa cells assessed as late apoptotic cells incubated at 10 uM for 24 hrs measured by annexin V-PI staining based FITC analysis (reference value: 3.45%); format: functional
HeLa [35] = assay: Induction of ROS generation in human HeLa cells assessed as increase in ROS level at 20 uM incubated for 1 hrs (reference value: 37.8%); format: functional

With `CCC/C=C/C=C/C(=O)O[C@@H]1C[C@H]2[C@@H](CCCC[C@H](O)CCC)CCC[C@H]2N[C@H]1C` the Activity (HeLa [1]) was 2.13%, the Activity (HeLa [2]) was “Active” and the Activity (HeLa [3]) was 6.71%. For the same compound, the Activity (HeLa [4]) was 84.4%, the Activity (HeLa [5]) was “Active” and the Activity [6] was “Non-Toxic”. The Activity (HeLa [7]) was “Active”, the Activity (B16-F10 [8]) was “Active” and the Activity (HeLa [9]) was 30.5%. The Activity (HeLa [10]) was 4.56%, the Activity (B16-F10 [11]) was “Active” and the Activity (B16-F10 [12]) was “Active”. The viability at 10 µM (HeLa [13]) was 20.6%, the Activity (HeLa [14]) was 3.94% and the Activity [15] was “Non-Toxic”. The Activity (HeLa [16]) was 0.94%, the IC50 (B16-F10 [17]) was 3.14 µM and the Activity [18] was “Non-Toxic”. The Activity (HeLa [19]) was 2.34%, the Activity (HeLa [20]) was “Active” and the Activity (HeLa [21]) was “Active”. The Activity [22] was “Non-Toxic”, the Activity [23] was “Non-Toxic” and the Activity (HeLa [24]) was 66.3%. It also gave an Activity (B16-F10 [25]) of under 500 mm3.
With `CCCCC/C=C/C(=O)O[C@@H]1C[C@H]2[C@@H](CCCC[C@H](O)CCC)CCC[C@H]2N[C@H]1C` the Activity (HeLa [26]) was 30.6%, the Activity (HeLa [27]) was “Active” and the Activity (HeLa [28]) was 80.6%. The Activity (HeLa [29]) was 2.73%, the Activity (HeLa [30]) was 4.68% and the viability at 10 µM (HeLa [31]) was 36.4%. It also gave an Activity (HeLa [32]) of 22.7%, an Activity (HeLa [33]) of 20.9% and an Activity (HeLa [34]) of 31.4%. For the same compound, the Activity (HeLa [35]) was 86.9%.
